Experimental data from US12357711B2, “PSMA binding dual mode radiotracer and therapeutic” (Technische Universität München, priority 2019, dated 2025).
Where “and” joins values, the source holds several entries; their conditions need not be identical. Equal values may be shown once.

Legend:
human serum albumin = target: T1, human serum albumin (Homo sapiens, UniProt P02768); experiment: HSA binding on Chiralpak HSA column; format: in vitro ADME; conditions: Chiralpak HSA column (50 × 3 mm, 5 μm)
T1 construct: purchased H13H-2433
T1 sequence (P02768 25-609): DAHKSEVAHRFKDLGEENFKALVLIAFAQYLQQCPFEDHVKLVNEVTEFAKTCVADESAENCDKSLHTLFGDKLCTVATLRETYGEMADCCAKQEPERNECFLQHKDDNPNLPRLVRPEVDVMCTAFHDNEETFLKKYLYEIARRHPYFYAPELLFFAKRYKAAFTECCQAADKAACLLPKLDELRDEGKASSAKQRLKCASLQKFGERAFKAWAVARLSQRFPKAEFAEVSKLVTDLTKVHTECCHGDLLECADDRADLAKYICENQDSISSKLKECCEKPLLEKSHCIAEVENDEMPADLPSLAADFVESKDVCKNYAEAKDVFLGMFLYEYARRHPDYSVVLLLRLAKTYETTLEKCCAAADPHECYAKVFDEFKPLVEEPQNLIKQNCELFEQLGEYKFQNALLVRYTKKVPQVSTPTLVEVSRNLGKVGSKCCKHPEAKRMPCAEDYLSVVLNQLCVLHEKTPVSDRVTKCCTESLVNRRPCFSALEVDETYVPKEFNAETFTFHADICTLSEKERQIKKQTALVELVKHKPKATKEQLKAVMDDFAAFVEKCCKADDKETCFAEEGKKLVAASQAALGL
Method: The mobile phase (A: NH4OAc, 50 mM in water, pH 7 and B: isopropanol) was freshly prepared for each experiment and only used for one day. The column was kept at room temperature and each run was stopped after detection of the signal to reduce the acquisition time. All substances were dissolved in a 0.5 mg/ml concentration in 50% 2-propanol and 50% 50 mM pH 6.9 ammonium acetate buffer. […] All nine reference substances were injected consecutively to establish a non-linear regression with Origin Pro 2016G.

[1] = system: LNCaP tumor-bearing SCID mice; experiment: Biodistribution at 1 h p.i.; format: in vivo
Method: FIG. 10: Biodistribution (in % ID/g) of ^18E-labeled rhPSMA tracers at 1 h p.i in LNCaP tumor-bearing SCID mice. Data are expressed as mean±SD (n=4 for rhPSMA7.1, n=5 for 7.2, n=4 for 7.3, n=5 for 7.4 and n=3 for 7-rac).

patients = experiment: Human biodistribution and uptake in tumor lesions (PET/CT, SUV); format: in vivo; conditions: clinical PET/CT
Method: Human biodistribution was estimated by analysing clinical ^18F-rhPSMA-7- and ^18F-rhPSMA-7.3-PET/CT exams in 47 and 32 patients, respectively.
The mean and maximum standardized uptake values (SUVmean/SUVmax) were determined for background (gluteal muscle), normal organs (salivary glands, blood pool, lung, liver, spleen, pancreas, duodenum, kidney, bladder, bone) and three representative tumor lesions. Tumor uptake was analyzed in 89 lesions (26 primary tumors/local recurrences, 23 bone, 38 lymph node and 2 visceral metastases) and 63 lesions (14 primary tumors/local recurrences, 30 bone, 18 lymph node and 1 visceral metastases) for ^18F-rhPSMA-7 and ^18F-rhPSMA-7.3, respectively.
Organ-background and Tumor-background ratios were calculated.

Substance: [^19F][^natGa]D/L-Dap-R/S-DOTAGA-rhPSMA7 [rhPSMA7-rac]
- HSA Binding (human serum albumin): 96.7%
- Biodistribution adrenals [1]: 3.0 ± 0.45 % ID/g
- Biodistribution blood [1]: 1.1 ± 0.03 % ID/g
- Biodistribution bone [1]: 0.91 ± 0.11 % ID/g
- Biodistribution heart [1]: 0.69 ± 0.07 % ID/g
- Biodistribution intestine [1]: 0.60 ± 0.27 % ID/g
- Biodistribution kidneys [1]: 71.3 ± 13.3 % ID/g
- Biodistribution liver [1]: 0.67 ± 0.07 % ID/g
- Biodistribution lung [1]: 1.4 ± 0.17 % ID/g
- Biodistribution muscle [1]: 0.36 ± 0.06 % ID/g
- Biodistribution pancreas [1]: 0.60 ± 0.10 % ID/g
- Biodistribution spleen [1]: 11.1 ± 2.3 % ID/g
- Biodistribution stomach [1]: 0.49 ± 0.07 % ID/g
- Biodistribution tumor ([1]; LNCaP tumor): 10.4 ± 0.67 % ID/g
- SUVmax bladder, max (patients): 112.0
- SUVmax bladder, mean (patients): 8.5
- SUVmax bladder, min (patients): 0.5
- SUVmax bloodpool, max (patients): 3.9
- SUVmax bloodpool, mean (patients): 2.4
- SUVmax bloodpool, min (patients): 1.6
- SUVmax duodenum, max (patients): 32.7
- SUVmax duodenum, mean (patients): 14.8
- SUVmax duodenum, min (patients): 2.8
- SUVmax kidney, max (patients): 75.2
- SUVmax kidney, mean (patients): 44.8
- SUVmax kidney, min (patients): 19.1
- SUVmax liver, max (patients): 25.2
- SUVmax liver, mean (patients): 9.5
- SUVmax liver, min (patients): 4.5
- SUVmax lungs, max (patients): 3.1
- SUVmax lungs, mean (patients): 1.1
- SUVmax lungs, min (patients): 0.5
- SUVmax pancreas, max (patients): 7.9
- SUVmax pancreas, mean (patients): 3.7
- SUVmax pancreas, min (patients): 1.8
- SUVmax parotic gland, max (patients): 42.3
- SUVmax parotic gland, mean (patients): 23.8
- SUVmax parotic gland, min (patients): 8.2
- SUVmax spleen, max (patients): 21.0
- SUVmax spleen, mean (patients): 11.8
- SUVmax spleen, min (patients): 4.7
- SUVmax submandibular gland, max (patients): 43.8
- SUVmax submandibular gland, mean (patients): 27.0
- SUVmax submandibular gland, min (patients): 10.1
- SUVmean bladder, max (patients): 85.7
- SUVmean bladder, min (patients): 0.3
- SUVmean bloodpool, max (patients): 17.0
- SUVmean bloodpool, mean (patients): 2.0
- SUVmean bloodpool, min (patients): 1.1
- SUVmean duodenum, max (patients): 23.9
- SUVmean duodenum, mean (patients): 10.9
- SUVmean duodenum, min (patients): 1.9
- SUVmean kidney, max (patients): 54.7
- SUVmean kidney, mean (patients): 32.4
- SUVmean kidney, min (patients): 13.2
- SUVmean liver, max (patients): 17.7
- SUVmean liver, mean (patients): 7.0
- SUVmean liver, min (patients): 3.2
- SUVmean lungs, max (patients): 2.0
- SUVmean lungs, mean (patients): 0.7
- SUVmean lungs, min (patients): 0.3
- SUVmean pancreas, max (patients): 5.5
- SUVmean pancreas, mean (patients): 2.5
- SUVmean pancreas, min (patients): 1.3
- SUVmean parotic gland, max (patients): 32.7
- SUVmean parotic gland, mean (patients): 16.9
- SUVmean parotic gland, min (patients): 5.5
- SUVmean spleen, max (patients): 17.1
- SUVmean spleen, mean (patients): 9.1
- SUVmean spleen, min (patients): 3.4
- SUVmean submandibular gland, max (patients): 29.7
- SUVmean submandibular gland, mean (patients): 19.6
- SUVmean submandibular gland, min (patients): 7.0
- SUVmax background, max (patients; gluteal muscle): 1.8
- SUVmax background, mean (patients; gluteal muscle): 1.0
- SUVmax background, min (patients; gluteal muscle): 0.6
- SUVmean background, max (patients; gluteal muscle): 1.2
- SUVmean background, mean (patients; gluteal muscle): 0.6
- SUVmean background, min (patients; gluteal muscle): 0.4
- SUVmax bone, max (patients; non-diseased bone): 3.1
- SUVmax bone, mean (patients; non-diseased bone): 1.7
- SUVmax bone, min (patients; non-diseased bone): 0.8
- SUVmean bone, max (patients; non-diseased bone): 2.1
- SUVmean bone, mean (patients; non-diseased bone): 1.1
- SUVmean bone, min (patients; non-diseased bone): 0.6
- SUVmax tumor, max (patients; tumor lesions): 167.2
- SUVmax tumor, mean (patients; tumor lesions): 27.6
- SUVmax tumor, min (patients; tumor lesions): 3.1
- SUVmean tumor, max (patients; tumor lesions): 115.7
- SUVmean tumor, min (patients; tumor lesions): 2.1
- SUVmean tumor, mean (patients; tumor lesions, listed as 18F-rhPSMA-7): 20.0±20.2 and 20.0
- SUVmean bladder, mean (patients; listed as 18F-rhPSMA-7): 6.3
